Structures are written as SMILES.

Among the data in patent US9663473B2 (Actelion Pharmaceuticals Ltd, priority 2013, dated 2017) are EC50 values, retold here.

The assay concerns the target T1, recombinant human ALX receptor (Homo sapiens, UniProt P25090).
T1 construct: expressed in transfected cells; host or cells: HEK293 (HEK293-hALXR-Gα16)
T1 sequence (P25090 1-351): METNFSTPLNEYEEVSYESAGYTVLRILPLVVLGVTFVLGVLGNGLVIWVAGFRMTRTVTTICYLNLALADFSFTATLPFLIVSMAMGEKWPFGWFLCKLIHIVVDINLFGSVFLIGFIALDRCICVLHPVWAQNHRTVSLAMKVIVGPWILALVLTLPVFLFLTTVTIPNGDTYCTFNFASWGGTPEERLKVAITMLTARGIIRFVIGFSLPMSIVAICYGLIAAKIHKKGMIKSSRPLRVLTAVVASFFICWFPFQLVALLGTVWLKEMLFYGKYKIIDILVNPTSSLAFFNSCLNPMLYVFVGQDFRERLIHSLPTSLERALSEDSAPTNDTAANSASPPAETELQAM
Briefly: Intracellular calcium measurements (FLIPR), ALX receptor agonistic activity. The format is cell-based. As to conditions: HEK293-hALXR-Gα16 cells, Fluo-4 calcium signal, normalized to WKYMVm 10 nM. A digest of the protocol:
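Agonist-induced calcium flux was read by FLIPR (488/540 nm) as baseline-subtracted peak emission, expressed relative to WKYMVm at 10 nM final. Cells used: HEK293-hALXR-Gα16, dye-loaded 60 min at 37° C. with 1 μM Fluo-4 AM before compound dose-response addition.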
In general terms: Calcium assays in cells follow changes in intracellular calcium, usually with a dye or a luminescent sensor.

Take `O=C(NC(Cc1ccc(OC(F)(F)F)cc1)c1nc2ccccc2[nH]1)NC1CN2CCC1CC2` (stereo not shown) [Example 141, 1-(1-(1H-Benzo[d]imidazol-2-yl)-2-(4-(trifluoromethoxy)phenyl)ethyl)-3-(quinuclidin-3-yl)urea]: the EC50 came to 0.834 µM. On to `COc1ccc(C[C@@H](NC(=O)N[C@H](C)c2ccc(C)cc2)c2nc3ccccc3[nH]2)cc1` [Example 301, 1-((R)-1-(1H-Benzo[d]imidazol-2-yl)-2-(4-methoxyphenyl)ethyl)-3-((R)-1-(p-tolyl)ethyl)urea], for which the EC50 was 0.066 µM. As to `COc1ccc(C[C@@H](NC(=O)N[C@H]2CCCNC2)c2nc3ccccc3[nH]2)cc1` [Example 132, 1-((R)-1-(1H-Benzo[d]imidazol-2-yl)-2-(4-methoxyphenyl)ethyl)-3-((S)-piperidin-3-yl)urea], the EC50 was determined as 0.023 µM. As to `COc1ccc(C[C@@H](NC(=O)NC2(c3ccc(F)cc3)CC2)c2nc3ccccc3[nH]2)cc1` [Example 341, (R)-1-(1-(1H-Benzo[d]imidazol-2-yl)-2-(4-methoxyphenyl)ethyl)-3-(1-(4-fluorophenyl)cyclopropyl)urea], the EC50 came to 0.397 µM.

`COc1cc(F)c(CC(NC(=O)N[C@H]2CC[C@](C)(O)CC2)c2nc3ccccc3[nH]2)c(F)c1` (mixture of isomers) [Example 236, 1-(1-(1H-Benzo[d]imidazol-2-yl)-2-(2,6-difluoro-4-methoxyphenyl)ethyl)-3-(trans-4-hydroxy-4-methylcyclohexyl)urea]: the EC50 was 0.0035 µM. With `COc1ccc(C[C@@H](NC(=O)NC2(c3cccc(C)c3)CC2)c2nc3ccccc3[nH]2)cc1` [Example 354, (R)-1-(1-(1H-Benzo[d]imidazol-2-yl)-2-(4-methoxyphenyl)ethyl)-3-(1-(m-tolyl)cyclopropyl)urea], the EC50 is 0.144 µM.

With `O=C(NC(Cc1ccc(Br)cc1)c1nc2cc(Cl)ccc2[nH]1)N[C@H]1CC[C@H](O)CC1` (relative stereo) [Example 81, 1-(2-(4-Bromophenyl)-1-(5-chloro-1H-benzo[d]imidazol-2-yl)ethyl)-3-(trans-4-hydroxycyclohexyl)urea], the EC50 was found to be 0.0014 µM.

As for `COc1ccc(C[C@@H](NC(=O)N[C@H]2CCC[C@@H]2O)c2nc3ccccc3[nH]2)cc1` [Example 115, 1-((R)-1-(1H-Benzo[d]imidazol-2-yl)-2-(4-methoxyphenyl)ethyl)-3-((1S,2S)-2-hydroxycyclopentyl)urea], the EC50 worked out at 0.143 µM. `COc1ccc(CC(NC(=O)N[C@H]2CC[C@H](O)CC2)c2nc3ccncc3[nH]2)cc1` (relative stereo) [Example 428, 1-(1-(3H-imidazo[4,5-c]pyridin-2-yl)-2-(4-methoxyphenyl)ethyl)-3-(trans-4-hydroxycyclohexyl)urea]: the EC50 was determined as 0.299 µM. In the case of `COc1ccc(CC(NC(=O)NC2CCC(CO)CC2)c2nc3ccccc3[nH]2)cc1` (stereo not shown) [Example 74, 1-(1-(1H-Benzo[d]imidazol-2-yl)-2-(4-methoxyphenyl)ethyl)-3-(4-(hydroxymethyl)cyclohexyl)urea], the EC50 was 0.013 µM.

As to `COc1ccc(C[C@@H](NC(=O)NCc2ccccc2OC)c2nc3ccccc3[nH]2)cc1` [Example 137], the EC50 was found to be 0.726 µM.

Take `COc1ccc(C[C@@H](NC(=O)N[C@H](C)c2ccc(F)cc2)c2nc3ccccc3[nH]2)cc1` [Example 320, 1-((R)-1-(1H-Benzo[d]imidazol-2-yl)-2-(4-methoxyphenyl)ethyl)-3-((R)-1-(4-fluorophenyl)ethyl)urea]: the EC50 amounted to 0.185 µM. Regarding `COc1ccc(C[C@@H](NC(=O)NCc2cccnc2COC(C)C(F)(F)F)c2nc3ccccc3[nH]2)cc1` (stereo partly drawn) [Example 216, 1-((R)-1-(1H-Benzo[d]imidazol-2-yl)-2-(4-methoxyphenyl)ethyl)-3-((2-(((1,1,1-trifluoropropan-2-yl)oxy)methyl)pyridin-3-yl)methyl)urea], the EC50 amounted to 0.0021 µM.

For the compound `COc1ccc(CC(NC(=O)NCc2ccccc2Cl)c2nc3ccccc3[nH]2)cc1` (stereo not shown) [Example 45, 1-(1-(1H-Benzo[d]imidazol-2-yl)-2-(4-methoxyphenyl)ethyl)-3-(2-chlorobenzyl)urea], the EC50 was found to be 0.76 µM. For `COc1ccc(C[C@@H](NC(=O)NCc2ccccn2)c2nc3ccccc3[nH]2)cc1` [Example 268, (R)-1-(1-(1H-Benzo[d]imidazol-2-yl)-2-(4-methoxyphenyl)ethyl)-3-(pyridin-2-ylmethyl)urea], the EC50 amounted to 0.659 µM. As for `COc1ccc(C[C@@H](NC(=O)NC2CCN(Cc3ccccc3)CC2)c2nc3ccccc3[nH]2)cc1` [Example 88, (R)-1-(1-(1H-Benzo[d]imidazol-2-yl)-2-(4-methoxyphenyl)ethyl)-3-(1-benzylpiperidin-4-yl)urea], the EC50 amounted to 0.101 µM. The value for `COc1ccc(C[C@@H](NC(=O)N[C@H]2CCN(C(=O)OC(C)(C)C)C2)c2nc3ccccc3[nH]2)cc1` [Example 119, (S)-tert-Butyl 3-(3-((R)-1-(1H-benzo[d]imidazol-2-yl)-2-(4-methoxyphenyl)ethyl)ureido)pyrrolidine-1-carboxylate] was 0.539 µM.

As for `COc1ccc(C[C@@H](NC(=O)NCc2ccccc2OCC(F)(F)F)c2nc3ccccc3[nH]2)cc1` [Example 219, (R)-1-(1-(1H-Benzo[d]imidazol-2-yl)-2-(4-methoxyphenyl)ethyl)-3-(2-(2,2,2-trifluoroethoxy)benzyl)urea], the EC50 was 0.014 µM. As for `COc1ccc(C[C@@H](NC(=O)NCCc2cccnc2)c2nc3ccccc3[nH]2)cc1` [Example 280, (R)-1-(1-(1H-Benzo[d]imidazol-2-yl)-2-(4-methoxyphenyl)ethyl)-3-(2-(pyridin-3-yl)ethyl)urea], the EC50 was 0.25 µM. Consider `COc1ccc(C[C@@H](NC(=O)NC2CCCC2)c2nc3ccccc3[nH]2)cc1` [Example 75, (R)-1-(1-(1H-Benzo[d]imidazol-2-yl)-2-(4-methoxyphenyl)ethyl)-3-cyclopentylurea], for which the EC50 turned out to be 0.041 µM. Consider `COc1ccc(C[C@@H](NC(=O)NC2CCN(C3CC3)CC2)c2nc3ccccc3[nH]2)cc1` [Example 71, (R)-1-(1-(1H-Benzo[d]imidazol-2-yl)-2-(4-methoxyphenyl)ethyl)-3-(1-cyclopropylpiperidin-4-yl)urea], for which the EC50 was 0.053 µM.

With `COc1ccc(C[C@@H](NC(=O)NCc2ccccc2C#N)c2nc3ccccc3[nH]2)cc1` [Example 211, (R)-1-(1-(1H-Benzo[d]imidazol-2-yl)-2-(4-methoxyphenyl)ethyl)-3-(2-cyanobenzyl)urea], the EC50 came to 0.167 µM. The value for `COc1ccc(C[C@@H](NC(=O)N[C@H](C)c2cccc(OC)c2)c2nc3ccccc3[nH]2)cc1` [Example 332, 1-((R)-1-(1H-Benzo[d]imidazol-2-yl)-2-(4-methoxyphenyl)ethyl)-3-((R)-1-(3-methoxyphenyl)ethyl)urea] was 0.101 µM.

In the case of `O=C(NC(Cc1ccc(C(F)F)cc1)c1nc2ccccc2[nH]1)N[C@H]1CC[C@H](O)CC1` (single isomer, unassigned; ent-2) [Example 369, 1-(1-(1H-Benzo[d]imidazol-2-yl)-2-(4-(difluoromethyl)phenyl)ethyl)-3-(trans-4-hydroxycyclohexyl)urea (ent-2)], the EC50 came to 0.0072 µM. For the compound `COc1ccc(CCNC(=O)N[C@H](Cc2ccc(OC)cc2)c2nc3ccccc3[nH]2)cc1` [Example 54, (R)-1-(1-(1H-Benzo[d]imidazol-2-yl)-2-(4-methoxyphenyl)ethyl)-3-(4-methoxyphenethyl)urea], the EC50 turned out to be 0.987 µM. In the case of `COc1ccc(C[C@@H](NC(=O)NC2CCN(C(=O)OC(C)(C)C)C2)c2nc3ccccc3[nH]2)cc1` (stereo partly drawn) [Example 93, tert-butyl 3-(3-((R)-1-(1H-Benzo[d]imidazol-2-yl)-2-(4-methoxyphenyl)ethyl)ureido)pyrrolidine-1-carboxylate], the EC50 stood at 0.016 µM. Next, `COc1ccc(C[C@@H](NC(=O)N[C@H]2CC[C@](C)(O)CC2)c2nc3ccccc3[nH]2)cc1` [Example 173, 1-((R)-1-(1H-Benzo[d]imidazol-2-yl)-2-(4-methoxyphenyl)ethyl)-3-(trans-4-hydroxy-4-methylcyclohexyl)urea]: 0.0031 µM; `COc1ccc(C[C@@H](NC(=O)NC2CC2)c2nc3ccccc3[nH]2)cc1` [Example 19, (R)-1-(1-(1H-Benzo[d]imidazol-2-yl)-2-(4-methoxyphenyl)ethyl)-3-cyclopropylurea]: 0.6 µM; `COc1ccc(C[C@@H](NC(=O)N[C@H](C)c2ccc(Br)cc2)c2nc3ccccc3[nH]2)cc1` [Example 322, 1-((R)-1-(1H-Benzo[d]imidazol-2-yl)-2-(4-methoxyphenyl)ethyl)-3-((R)-1-(4-bromophenyl)ethyl)urea]: 0.585 µM.

As for `COc1ccc(C[C@@H](NC(=O)NC(C)c2cn3ccsc3n2)c2nc3ccccc3[nH]2)cc1` (stereo partly drawn) [Example 338, 1-((R)-1-(1H-Benzo[d]imidazol-2-yl)-2-(4-methoxyphenyl)ethyl)-3-(1-(imidazo[2,1-b]thiazol-6-yl)ethyl)urea], the EC50 came out at 0.036 µM. With `COc1ccc(C[C@@H](NC(=O)NC(C)(C)c2cccc(C)c2)c2nc3ccccc3[nH]2)cc1` [Example 353, (R)-1-(1-(1H-Benzo[d]imidazol-2-yl)-2-(4-methoxyphenyl)ethyl)-3-(2-(m-tolyl)propan-2-yl)urea], the EC50 is 0.461 µM.

For orientation: EC50 means the concentration giving half of the maximal effect.
